In ChEMBL document CHEMBL6078677, “Discovery and optimization of tetrahydroacridine derivatives as a novel class of antibiotics against multidrug-resistant Gram-positive pathogens by targeting type I signal peptidase and disrupting bacterial membrane” (Eur J Med Chem, 2025):
In brackets after ≈: the same amount, converted by molar mass.

Experiments:
Streptococcus suis [1] = assay: Antimicrobial activity against Streptococcus suis P1/7 assessed as inhibition of visible growth of bacteria incubated for 20 hrs by broth microdilution method; format: functional
Pseudomonas aeruginosa [2] = assay: Antimicrobial activity against Pseudomonas aeruginosa PA14 assessed as inhibition of visible growth of bacteria incubated for 20 hrs by broth microdilution method; format: functional
Enterococcus faecium [3] = assay: Antimicrobial activity against Enterococcus faecium QF31 harboring erythromycin resistance rRNA methylase B and chloramphenicol-florfenicol resistance methylase assessed as inhibition of visible growth of bacteria incubated for 20 hrs by broth microdilution method; format: functional
Staphylococcus aureus [4] = assay: Antimicrobial activity against Staphylococcus aureus YZSA-15 harboring erythromycin resistance rRNA methylase C and vancomycin resistance locus assessed as inhibition of visible growth of bacteria incubated for 20 hrs by broth microdilution method; format: functional
Staphylococcus aureus [5] = assay: Antimicrobial activity against Staphylococcus aureus YZSA-21 harboring erythromycin resistance rRNA methylase C assessed as inhibition of visible growth of bacteria incubated for 20 hrs by broth microdilution method; format: functional
Staphylococcus aureus [6] = assay: Antimicrobial activity against Staphylococcus aureus YZSA-24 harboring erythromycin resistance rRNA methylase C and methicillin resistance gene resistance locus assessed as inhibition of visible growth of bacteria incubated for 20 hrs by broth microdilution method; format: functional
Pseudomonas aeruginosa [7] = assay: Antimicrobial activity against Pseudomonas aeruginosa PA01 assessed as inhibition of visible growth of bacteria incubated for 20 hrs by broth microdilution method; format: functional
Streptococcus pyogenes = assay: Antimicrobial activity against Streptococcus pyogenes DL02 harboring erythromycin-resistance rRNA methylase B assessed as inhibition of visible growth of bacteria incubated for 20 hrs by broth microdilution method; format: functional
Enterococcus faecium [8] = assay: Antimicrobial activity against Enterococcus faecium MC38 harboring erythromycin resistance rRNA methylase B and oxazolidinone-phenicol transferable resistance gene assessed as inhibition of visible growth of bacteria incubated for 20 hrs by broth microdilution method; format: functional
Enterococcus faecium [9] = assay: Antimicrobial activity against Enterococcus faecium HFY01 assessed as inhibition of visible growth of bacteria incubated for 20 hrs by broth microdilution method; format: functional
Enterococcus faecalis [10] = assay: microbe, parasite or virus in culture; format: functional; details: SF23-1, time 20 hrs
Description: Antimicrobial activity against Enterococcus faecalis SF23-1 harboring erythromycin-resistance rRNA methylase B, tetracycline efflux protein L and chloramphenicol-florfenicol resistance methylase assessed as inhibition of visible growth of bacteria incubated for 20 hrs by broth microdilution method

Salmonella enteritidis = assay: Antimicrobial activity against Salmonella enteritis S1 assessed as inhibition of visible growth of bacteria incubated for 20 hrs by broth microdilution method; format: functional, Salmonella enterica subsp. enterica serovar Enteritidis; details: Salmonella enterica
Enterococcus faecalis [11] = assay: Antimicrobial activity against Enterococcus faecalis JH2-2 assessed as inhibition of visible growth of bacteria incubated for 20 hrs by broth microdilution method; format: functional
Acinetobacter baumannii [12] = assay: Antimicrobial activity against Acinetobacter baumannii AB11 assessed as inhibition of visible growth of bacteria incubated for 20 hrs by broth microdilution method; format: functional
Acinetobacter baumannii [13] = assay: Antimicrobial activity against Acinetobacter baumannii 7979 assessed as inhibition of visible growth of bacteria incubated for 20 hrs by broth microdilution method; format: functional
Enterococcus faecalis [14] = assay: Antimicrobial activity against Enterococcus faecalis J2 harboring erythromycin-resistance rRNA methylase B and oxazolidinone phenicol transferable resistance gene assessed as inhibition of visible growth of bacteria incubated for 20 hrs by broth microdilution method; format: functional
Enterococcus faecalis [15] = assay: Antimicrobial activity against Enterococcus faecalis ES01 harboring erythromycin-resistance rRNA methylase B and vanB-type vancomycin-resistance locus assessed as inhibition of visible growth of bacteria incubated for 20 hrs by broth microdilution method; format: functional
Streptococcus agalactiae = assay: Antimicrobial activity against Streptococcus agalactiae DL03 harboring erythromycin-resistance rRNA methylase B assessed as inhibition of visible growth of bacteria incubated for 20 hrs by broth microdilution method; format: functional
Escherichia coli = assay: Antimicrobial activity against Escherichia coli ATCC 25922 assessed as inhibition of visible growth of bacteria incubated for 20 hrs by broth microdilution method; format: functional
Staphylococcus aureus [16] = assay: microbe, parasite or virus in culture; format: functional; details: M92-1, time 20 hrs
Description: Antimicrobial activity against Staphylococcus aureus M92-1 harboring erythromycin resistance rRNA methylase B, tetracycline efflux protein L and oxazolidinone-phenicol transferable resistance gene assessed as inhibition of visible growth of bacteria incubated for 20 hrs by broth microdilution method

Klebsiella pneumoniae = assay: Antimicrobial activity against Klebsiella pneumoniae 9-1 assessed as inhibition of visible growth of bacteria incubated for 20 hrs by broth microdilution method; format: functional
Staphylococcus aureus [17] = assay: Antimicrobial activity against Staphylococcus aureus ATCC 29213 assessed as inhibition of visible growth of bacteria incubated for 20 hrs by broth microdilution method; format: functional
Streptococcus suis [18] = assay: microbe, parasite or virus in culture; format: functional; details: SH0918, time 20 hrs
Description: Antimicrobial activity against Streptococcus suis SH0918 harboring erythromycin-resistance rRNA methylase B, tetracycline efflux protein O and oxazolidinone phenicol transferable resistance gene assessed as inhibition of visible growth of bacteria incubated for 20 hrs by broth microdilution method

Staphylococcus aureus [19] = assay: microbe, parasite or virus in culture; format: functional; details: M147-2, time 20 hrs
Description: Antimicrobial activity against Staphylococcus aureus M147-2 harboring erythromycin resistance rRNA methylase B, tetracycline efflux protein L and chloramphenicol-florfenicol resistance methylase assessed as inhibition of visible growth of bacteria incubated for 20 hrs by broth microdilution method

In the case of CCC[C@@H]1C[C@@H](C(=O)N[C@@H]([C@H]2O[C@H](SC)[C@H](O)[C@@H](O)[C@H]2O)[C@H](C)Cl)N(C)C1 [CLINDAMYCIN], the MIC (Streptococcus suis [1]) was 0.125 µg/mL (≈ 0.294 µM), the MIC (Pseudomonas aeruginosa [2]) was over 32 µg/mL and the MIC (Enterococcus faecium [3]) was over 32 µg/mL. It also gave an MIC (Staphylococcus aureus [4]) of over 32 µg/mL, an MIC (Staphylococcus aureus [5]) of over 32 µg/mL and an MIC (Staphylococcus aureus [6]) of over 32 µg/mL. For the same molecule, the MIC (Pseudomonas aeruginosa [7]) was over 32 µg/mL, the MIC (Streptococcus pyogenes) was over 32 µg/mL and the MIC (Enterococcus faecium [8]) was over 32 µg/mL. For the same molecule, the MIC (Enterococcus faecium [9]) was 0.5 µg/mL (≈ 1.18 µM), the MIC (Enterococcus faecalis [10]) was over 32 µg/mL and the MIC (Salmonella enteritidis) was over 32 µg/mL. It also gave an MIC (Enterococcus faecalis [11]) of 0.5 µg/mL (≈ 1.18 µM), an MIC (Acinetobacter baumannii [12]) of 0.5 µg/mL (≈ 1.18 µM) and an MIC (Acinetobacter baumannii [13]) of over 32 µg/mL. The MIC (Enterococcus faecalis [14]) was over 32 µg/mL, the MIC (Enterococcus faecalis [15]) was over 32 µg/mL and the MIC (Streptococcus agalactiae) was over 32 µg/mL. It also gave an MIC (Escherichia coli) of over 32 µg/mL, an MIC (Staphylococcus aureus [16]) of over 32 µg/mL and an MIC (Klebsiella pneumoniae) of over 32 µg/mL. The MIC (Staphylococcus aureus [17]) was 0.125 µg/mL (≈ 0.294 µM), the MIC (Streptococcus suis [18]) was over 32 µg/mL and the MIC (Staphylococcus aureus [19]) was over 32 µg/mL.
C[C@H]1c2cccc(O)c2C(=O)C2=C(O)[C@]3(O)C(=O)C(C(N)=O)=C(O)[C@@H](N(C)C)[C@@H]3[C@@H](O)[C@@H]21 [DOXYCYCLINE ANHYDROUS] gave an MIC (Streptococcus suis [1]) of 0.125 µg/mL (≈ 0.281 µM), an MIC (Pseudomonas aeruginosa [2]) of 16 µg/mL (≈ 36 µM) and an MIC (Enterococcus faecium [3]) of 16 µg/mL (≈ 36 µM). It also gave an MIC (Staphylococcus aureus [4]) of 0.25 µg/mL (≈ 0.563 µM), an MIC (Staphylococcus aureus [5]) of 0.25 µg/mL (≈ 0.563 µM) and an MIC (Staphylococcus aureus [6]) of 0.5 µg/mL (≈ 1.13 µM). For the same molecule, the MIC (Pseudomonas aeruginosa [7]) was 8 µg/mL (≈ 18 µM), the MIC (Streptococcus pyogenes) was 2 µg/mL (≈ 4.5 µM) and the MIC (Enterococcus faecium [8]) was 16 µg/mL (≈ 36 µM). It also gave an MIC (Enterococcus faecium [9]) of under 0.06 µg/mL, an MIC (Enterococcus faecalis [10]) of 16 µg/mL (≈ 36 µM) and an MIC (Salmonella enteritidis) of over 32 µg/mL. The MIC (Enterococcus faecalis [11]) was 4 µg/mL (≈ 9 µM), the MIC (Acinetobacter baumannii [12]) was under 0.06 µg/mL and the MIC (Acinetobacter baumannii [13]) was over 32 µg/mL. For the same molecule, the MIC (Enterococcus faecalis [14]) was 8 µg/mL (≈ 18 µM), the MIC (Enterococcus faecalis [15]) was 2 µg/mL (≈ 4.5 µM) and the MIC (Streptococcus agalactiae) was under 0.06 µg/mL. It also gave an MIC (Escherichia coli) of 1 µg/mL (≈ 2.25 µM), an MIC (Staphylococcus aureus [16]) of over 32 µg/mL and an MIC (Klebsiella pneumoniae) of over 32 µg/mL. It also gave an MIC (Staphylococcus aureus [17]) of 0.25 µg/mL (≈ 0.563 µM), an MIC (Streptococcus suis [18]) of 16 µg/mL (≈ 36 µM) and an MIC (Staphylococcus aureus [19]) of over 32 µg/mL.
CC[C@H]1OC(=O)[C@H](C)[C@@H](O[C@H]2C[C@@](C)(OC)[C@@H](O)[C@H](C)O2)[C@H](C)[C@@H](O[C@@H]2O[C@H](C)C[C@H](N(C)C)[C@H]2O)[C@](C)(O)C[C@@H](C)C(=O)[C@H](C)[C@@H](O)[C@]1(C)O [ERYTHROMYCIN] was tested, and the MIC (Streptococcus suis [1]) was 0.125 µg/mL (≈ 0.17 µM), the MIC (Enterococcus faecium [3]) was over 32 µg/mL and the MIC (Staphylococcus aureus [4]) was over 32 µg/mL. The MIC (Staphylococcus aureus [5]) was over 32 µg/mL, the MIC (Staphylococcus aureus [6]) was over 32 µg/mL and the MIC (Streptococcus pyogenes) was over 32 µg/mL. The MIC (Enterococcus faecium [8]) was over 32 µg/mL, the MIC (Enterococcus faecium [9]) was 2 µg/mL (≈ 2.73 µM) and the MIC (Enterococcus faecalis [10]) was over 32 µg/mL. It also gave an MIC (Enterococcus faecalis [11]) of 0.25 µg/mL (≈ 0.341 µM), an MIC (Enterococcus faecalis [14]) of over 32 µg/mL and an MIC (Enterococcus faecalis [15]) of over 32 µg/mL. It also gave an MIC (Streptococcus agalactiae) of over 32 µg/mL, an MIC (Staphylococcus aureus [16]) of over 32 µg/mL and an MIC (Staphylococcus aureus [17]) of 1 µg/mL (≈ 1.36 µM). It also gave an MIC (Streptococcus suis [18]) of over 32 µg/mL and an MIC (Staphylococcus aureus [19]) of over 32 µg/mL.
Molecule C[C@H]1COc2c(N3CCN(C)CC3)c(F)cc3c(=O)c(C(=O)O)cn1c23 [LEVOFLOXACIN ANHYDROUS] has an MIC (Pseudomonas aeruginosa [2]) of 0.125 µg/mL (≈ 0.346 µM), an MIC (Pseudomonas aeruginosa [7]) of 0.5 µg/mL (≈ 1.38 µM) and an MIC (Salmonella enteritidis) of 0.5 µg/mL (≈ 1.38 µM). It also gave an MIC (Acinetobacter baumannii [12]) of 0.125 µg/mL (≈ 0.346 µM), an MIC (Acinetobacter baumannii [13]) of over 32 µg/mL and an MIC (Escherichia coli) of 0.125 µg/mL (≈ 0.346 µM). For the same molecule, the MIC (Klebsiella pneumoniae) was over 32 µg/mL.
Work on C[C@@H](O)[C@H]1C(=O)N2C(C(=O)O)=C(S[C@@H]3CN[C@H](C(=O)N(C)C)C3)[C@H](C)[C@H]12 [MEROPENEM] yielded an MIC (Pseudomonas aeruginosa [2]) of 0.5 µg/mL (≈ 1.3 µM), an MIC (Pseudomonas aeruginosa [7]) of 0.5 µg/mL (≈ 1.3 µM) and an MIC (Salmonella enteritidis) of 0.25 µg/mL (≈ 0.652 µM). It also gave an MIC (Acinetobacter baumannii [12]) of under 0.06 µg/mL, an MIC (Acinetobacter baumannii [13]) of over 32 µg/mL and an MIC (Escherichia coli) of 0.25 µg/mL (≈ 0.652 µM). The MIC (Klebsiella pneumoniae) was 4 µg/mL (≈ 10.4 µM).
CN[C@H](CC(C)C)C(=O)N[C@H]1C(=O)N[C@@H](CC(N)=O)C(=O)N[C@H]2C(=O)N[C@H]3C(=O)N[C@H](C(=O)N[C@H](C(=O)O)c4cc(O)cc(O)c4-c4cc3ccc4O)[C@H](O)c3ccc(c(Cl)c3)Oc3cc2cc(c3O[C@@H]2O[C@H](CO)[C@@H](O)[C@H](O)[C@H]2O[C@H]2C[C@](C)(N)[C@H](O)[C@H](C)O2)Oc2ccc(cc2Cl)[C@H]1O [VANCOMYCIN] gave an MIC (Streptococcus suis [1]) of under 0.06 µg/mL, an MIC (Staphylococcus aureus [4]) of 16 µg/mL (≈ 11 µM) and an MIC (Staphylococcus aureus [6]) of under 0.06 µg/mL. The MIC (Streptococcus pyogenes) was under 0.06 µg/mL, the MIC (Enterococcus faecalis [10]) was 2 µg/mL (≈ 1.38 µM) and the MIC (Enterococcus faecalis [11]) was 2 µg/mL (≈ 1.38 µM). It also gave an MIC (Enterococcus faecalis [14]) of 2 µg/mL (≈ 1.38 µM), an MIC (Enterococcus faecalis [15]) of 16 µg/mL (≈ 11 µM) and an MIC (Streptococcus agalactiae) of 0.125 µg/mL (≈ 0.0863 µM). For the same molecule, the MIC (Streptococcus suis [18]) was under 0.06 µg/mL.
